According to patent publication US10563272B2, “Compositions comprising Metarhizium fungi and use thereof as a pesticide” (Cotton Research and Development Corporation, priority 2015, dated 2020):

Columns and labels:
[1] = system: predatory beetles; assay: Rate trial on conventional cotton refuge crops, Undabri 2012 (Example 12): predatory beetles; assay type: in vivo, Coleoptera (Coccinellidae, Melyridae); details: DAT 511 250 mL/ha, 500 mL/ha and 1.0 L/ha; fipronil 62.5 mL/ha
Description: This trial was conducted using commercial conventional cotton refuge crops at Undabri in Goondiwindi (28° 55'S, 150° 31′E) from 14 Feb. to 6 Mar. 2012.
The efficacy of the following treatments against green mirids, green vegetable bugs and predatory insects was assessed: • 1. 250 mL/ha DAT 511 spore in oil (1×10^7 spores/ml); • 2. 500 mL/ha DAT 511 spore in oil (1×10^7 spores/ml); • 3. 1 L/ha DAT 511 spore in oil (1×10^7 spores/ml); • 4. 62.5 mL/ha fipronil; and • 5. Unsprayed (negative control).
The plots were arranged in a randomized complete block design with three replicates per treatment. Each replicated plot measured 8 m (8 rows) wide and 250 m long.
Foliar applications of each treatment were made on 14 Feb. 2012 using a ground spray rig fitted with flat fan nozzles to achieve a droplet size of 200 μm. All insecticide formulations were water miscible. All treatments were applied using a spray volume of 100 L/ha. The untreated (negative control) plot was left unsprayed and the plot treated with synthetic insecticide received two applications similar to, and on the same date as, the plots treated with the fungus.
For each replicate, visual counts of adults and nymphs of green mirids, green vegetable bugs (GVB), apple dimpling bugs and predatory insects on whole cotton plants were made in a randomly selected 1 m length of row of cotton plants (i.e. 6 m per treatment). […]

[2] = system: predatory beetles; assay: Rate trial on conventional cotton, Norwood 2012 (Example 10): predatory beetles; assay type: in vivo, Coleoptera (Coccinellidae, Melyridae); details: 3 and 6 Mar. 2012; fipronil 62.5 mL/ha; P<0.05
Description: This trial was conducted on commercial conventional cotton crops on a farm at Norwood (29° 28'S, 149° 50′E) near Moree, NSW, from 28 Feb. to 21 Mar. 2012. The cotton used for the trial was at the early squaring stage, when it was attractive to green mirids (Khan et al. 2004).
The efficacy of the following treatments against green mirids and predatory insects were evaluated: • 1. 250 mL/ha DAT 511 spore in oil (1×10^7 spores/ml); • 2. 500 mL/ha DAT 511 spore in oil (1×10^7 spores/ml); • 3. 1 L/ha DAT 511 spore in oil (1×10^7 spores/ml); • 4. 62.5 mL/ha of Fipronil; and • 5. Unsprayed (negative control).
The treatment plots were arranged in a randomized complete block design with six replicates per treatment. Each replicated plot measured 40 m wide (40 rows) and 90 m long.
Foliar application of each treatment was made on 28 Feb. (for both green mirids and beneficial insects) and 13 Mar. […]
Pre-treatment counts of adult and nymph green mirids, predatory beetles, predatory bugs, predatory lacewings and spiders were made by visual inspection of whole cotton plants. Both adults and nymphs of beneficial insects were counted. Plants were assessed in randomly selected one-metre lengths of row of each treatment replicate (i.e. 6 m per treatment). […] Data are expressed as numbers of green mirid adults and nymphs counted per metre per treatment.

N#Cc1nn(-c2c(Cl)cc(C(F)(F)F)cc2Cl)c(N)c1[S+]([O-])C(F)(F)F (centres unmarked) [fipronil]
effect on number of predatory beetles per metre [1]: identical | number of predatory beetles per metre versus unsprayed and DAT 511 treated plots [2]: significantly lower
